Experimental data as given in patent publication US8153651B2, “Amide derivatives as ion-channel ligands and pharmaceutical compositions and methods of using the same” (Evotec AG, priority 2007, dated 2012).
Read-outs that look alike come from different tables or passages of the source.

Target: T1, hVR1 (Homo sapiens, UniProt Q8NER1)
T1 construct: expressed in transfected cells; host or cells: T-REx System cell line (Invitrogen Cat# R710-07), called 'human keratinocyte cell line' and 'HEK 293 cells'; vector pcDNA5/TO (Invitrogen Cat# V1033-20); expression induced with doxycycline
T1 sequence (Q8NER1 whole entry): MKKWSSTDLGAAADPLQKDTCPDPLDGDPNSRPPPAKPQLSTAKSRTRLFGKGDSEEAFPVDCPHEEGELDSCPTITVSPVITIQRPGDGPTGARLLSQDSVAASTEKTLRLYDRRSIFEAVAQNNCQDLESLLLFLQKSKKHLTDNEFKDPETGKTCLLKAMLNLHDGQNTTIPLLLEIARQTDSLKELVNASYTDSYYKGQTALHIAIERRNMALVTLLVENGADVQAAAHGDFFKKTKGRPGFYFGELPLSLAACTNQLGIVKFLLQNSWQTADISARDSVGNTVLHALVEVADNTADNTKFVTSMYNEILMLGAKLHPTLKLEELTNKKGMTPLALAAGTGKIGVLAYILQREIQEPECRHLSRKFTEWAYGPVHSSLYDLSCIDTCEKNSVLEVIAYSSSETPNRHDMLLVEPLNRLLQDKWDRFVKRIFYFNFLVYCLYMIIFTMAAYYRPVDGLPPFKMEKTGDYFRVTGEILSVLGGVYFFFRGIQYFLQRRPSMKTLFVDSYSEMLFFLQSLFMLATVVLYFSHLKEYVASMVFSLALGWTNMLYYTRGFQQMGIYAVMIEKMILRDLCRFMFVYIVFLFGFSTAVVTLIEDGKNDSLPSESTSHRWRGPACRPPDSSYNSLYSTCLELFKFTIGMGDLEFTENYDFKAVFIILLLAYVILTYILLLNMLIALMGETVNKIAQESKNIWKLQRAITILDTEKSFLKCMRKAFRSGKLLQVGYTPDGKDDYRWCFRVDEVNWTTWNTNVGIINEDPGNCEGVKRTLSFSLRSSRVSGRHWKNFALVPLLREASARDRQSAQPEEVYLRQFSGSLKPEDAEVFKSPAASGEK
Test: Calcium uptake assay (FLIPR), inhibition of agonist-induced calcium influx in cells expressing hVR1
Type: cell-based
Conditions: cells expressing human VR1, 2 or 30 min pre-incubation
Description: The syntheses of these representative compounds were carried out in accordance with the methods set forth above, and activity of the compounds was measured by percent inhibition in a calcium uptake assay, the details of which are described below.
Functional activity of compounds against the VR1 receptor was determined by measuring changes in intracellular calcium in HEK 293 cells expressing hVR1. Compounds were examined for their ability to inhibit agonist-induced calcium influx. Relative levels of [Ca^2+] were monitored in a 96-well format using a calcium-sensitive fluorescence dye and a FLIPR TETRA, Molecular Devices.
Cells that express high levels of VR1 were obtained by generation of a cell line from human keratinocytes with heterologous expression of VR1 under control of an inducible promoter. Specifically, cells expressing human VR1 under the control of the human cytomegalovirus immediate-early (CMV) promoter and two tetracycline operator 2 (TetO2) sites were made using the T-REx System (Invitrogen, Carlsbad, Calif., USA). Details and methods concerning this system are published (Hum. Gene Ther. 9, pp. 1939-1950, 1998; Annu. Rev. Microbiol. 48, pp. 345-369, 1994; Mol. Biol. 169, pp. 707-721, 1983). Human VR1 was subcloned into the T-REx System pcDNA5/TO vector (Invitrogen Cat# V1033-20) which was transfected into the T-REx System human keratinocyte cell line (Invitrogen Cat# R710-07) from which a stable cell line was established which expresses VR1 after induction by exposure to tetracycline or doxycycline (Hum. Gene Ther. 9, pp. 1939-1950, 1998; instructions that come with purchase of products noted above). Cells were maintained in a CO2 incubator (5% CO2) at 37° C. in culture medium containing DMEM with phenol red (Mediatech Cat #: 15-017-CV) supplemented with 10% heat-inactivated Fetal Bovine Serum, 5% Penicillin-streptomycin (Mediatech Cat #: 30-002-CI), 5% Glutamax® (L-Alanyl-L-Glutamine, Mediateach Cat #: 25-015-CI), 200 μg/ml hygromycin (Mediatech #:30-240-CR), 0.5 μg/ml blasticidin (Invitrogen #46-1120)).
For assay preparation, cells expressing human VR1 as described above were plated in 96-well plates (Becton Dickinson [BD] poly-D-lysine coated 96-well plates, cat#356692) at 55,000 cells per well in culture media (described above) that also contained 1 ug/ml doxycycline. Plated cells were then placed in an incubator (5% CO2) and incubated for 20-26 hours at 37° C., until the cells had grown to near confluency. Media was then aspirated from cells and 50 uL of dye-containing buffer (from Molecular Devices FLIPR Calcuim 4 Assay kit, cat# R8141) was added to each well. Cells were then left in the dark at room temperature for 1.5-2 hours. Cell plates were then placed in the FLIPR TETRA (Molecular Devices, CA, USA). Test compounds and agonists were added to wells using the liquid handling capability of the FLIPR TETRA. Calcuim responses of the cells were monitored by fluorescence readout of dye signal. Test compounds in saline (130 mM NaCl, 17 g/L sucrose, 1.8 g/L glucose, 8.8 mM HEPES, 3 mM KCl, 0.60 mM MgCl, 1.0 mM CaCl2; adjust to pH 7.4 using NaOH; 0.03% BSA added on the day of the experiment), or vehicle control in saline, were pre-incubated at the desired final concentrations in the dark at room temperature for 2 or 30 minutes with cells already containing the above mentioned dye buffer (dye solution was diluted 1:1 in culture wells with saline containing 2× the final concentration of test compound). […] Another agonist was protons via a low pH solution (saline solution described above plus 10 mM citric acid buffered to pH 5.7 with HCl instead of buffering to a neutral pH with NaOH as done for normal saline). Compounds were tested at various concentration ranges, depending upon potency of compound.

[1] = IC50 (nM) Capsaicin, agonist capsaicin at 10 nM or its EC50
[2] = agonist protons, low pH solution pH 5.7, read-out: IC50 (nM) Low pH
[3] = read-out: IC50 (nM) Capsaicin, agonist capsaicin at 10 nM or its EC50

| Compound | IC50 [1] | IC50 [2] | IC50 [3] |
| --- | --- | --- | --- |
| COC(C)(C)c1ccc2c(n1)CC[C@@H](C(=O)N[C@H](C)c1cc(C)c(NS(C)(=O)=O)cc1F)C2 (single isomer, unassigned) [Example 14] | 101 to 500 nM | 101 to 500 nM | – |
| COc1ccc2c(c1)CCC(C(=O)N[C@H](C)c1cc(C)c(NS(C)(=O)=O)cc1F)C2C (some centres unmarked) [Example 5] | 101 to 500 nM | > 1000 nM | – |
| Cc1cc([C@@H](C)NC(=O)[C@H]2CCc3nc(C(C)(C)C(F)(F)F)ccc3C2)c(F)cc1NS(C)(=O)=O [Example 10, (S)—N—((R)-1-(2-Fluoro-5-methyl-4-(methylsulfonamido)phenyl)ethyl)-2-(1,1,1-trifluoro-2-methylpropan-2-yl)-5,6,7,8-tetrahydroquinoline-6-carboxamide] | – | – | < 100 nM |
| COc1ccc2c(c1)CCC(C(=O)NC(C)c1cc(C)c(NS(C)(=O)=O)cc1F)C2 (centres unmarked) [Example 11, 6-Methoxy-1,2,3,4-tetrahydro-naphthalene-2-carboxylic acid [1-(2-fluoro-4-methanesulfonylamino-5-methyl-phenyl)-ethyl]-amide] | 101 to 500 nM | – | – |
| Cc1cc([C@@H](C)NC(=O)C2COc3nc(C(F)(F)F)ccc3O2)c(F)cc1NS(C)(=O)=O (stereo partly drawn) [Example 21, 6-trifluoromethyl-2,3-dihydro[1,4]dioxino[2,3-b]pyridine-2-carboxylic acid [(R)-1-(2-fluoro-4-methanesulfonylamino-5-methylphenyl)ethyl]amide] | 101 to 500 nM | – | – |
| Cc1cc([C@@H](C)NC(=O)[C@@H]2CCc3nc(C(C)(C)C(F)(F)F)ccc3C2)c(F)cc1NS(C)(=O)=O [Example 9, (R)—N—((R)-1-(2-Fluoro-5-methyl-4-(methylsulfonamido)phenyl)ethyl)-2-(1,1,1-trifluoro-2-methylpropan-2-yl)-5,6,7,8-tetrahydroquinoline-6-carboxamide] | – | < 100 nM | – |
| Cc1cc([C@@H](C)NC(=O)[C@@H]2COc3ccc(C(F)(F)F)cc3O2)c(F)cc1NS(C)(=O)=O [Example 19, (S)—N—((R)-1-(2-fluoro-5-methyl-4-(methylsulfonamido)phenyl)ethyl)-7-(trifluoromethyl)-2,3-dihydrobenzo[b][1,4]dioxine-2-carboxamide] | 101 to 500 nM | – | – |
| Cc1cc([C@@H](C)NC(=O)[C@@H]2COc3cc(C(F)(F)F)ccc3O2)c(F)cc1NS(C)(=O)=O [Example 16, (S)—N—((R)-1-(2-fluoro-5-methyl-4-(methylsulfonamido)phenyl)ethyl)-6-(trifluoromethyl)-2,3-dihydrobenzo[b][1,4]dioxine-2-carboxamide] | 101 to 500 nM | – | – |
| Cc1cc([C@@H](C)NC(=O)C2CCc3ccccc3O2)c(F)cc1NS(C)(=O)=O (some centres unmarked) [Example 2] | 101 to 500 nM | > 1000 nM | – |
| (R)—N—((R)-1-(2-fluoro-5-methyl-4-(methylsulfonamido)phenyl)ethyl)-6-(trifluoromethyl)-2,3-dihydrobenzo[b][1,4]dioxine-2-carboxamide [Example 18] | – | – | < 100 nM |
| Cc1cc([C@@H](C)NC(=O)C2CCc3nc(C(C)(C)O)ccc3C2)c(F)cc1NS(C)(=O)=O (stereo partly drawn) [Example 13, N—((R)-1-(2-fluoro-5-methyl-4-(methylsulfonamido)phenyl)ethyl)-2-(2-hydroxypropan-2-yl)-5,6,7,8-tetrahydroquinoline-6-carboxamide] | 101 to 500 nM | – | – |
| Cc1cc([C@@H](C)NC(=O)[C@H]2CCc3nc(C4(C)OCCO4)ccc3C2)c(F)cc1NS(C)(=O)=O [Example 20, (S)—N—((R)-1-(2-fluoro-5-methyl-4-(methylsulfonamido)phenyl)ethyl)-2-(2-methyl-1,3-dioxolan-2-yl)-5,6,7,8-tetrahydroquinoline-6-carboxamide] | 101 to 500 nM | – | – |

Next, values leading:

| IC50 [1] | IC50 [2] | IC50 [3] | Compound |
| --- | --- | --- | --- |
| < 100 nM | < 100 nM | – | Cc1cc([C@@H](C)NC(=O)C2CN(C)c3cc(C(F)(F)F)ccc3O2)c(F)cc1NS(C)(=O)=O (some centres unmarked) [Example 7] |
| < 100 nM | < 100 nM | – | COC(C)(C)c1ccc2c(n1)CC[C@H](C(=O)N[C@H](C)c1cc(C)c(NS(C)(=O)=O)cc1F)C2 (single isomer, unassigned) [Example 15] |
| < 100 nM | < 100 nM | – | Cc1cc([C@@H](C)NC(=O)C2=Cc3cc(Cl)ccc3OC2)c(F)cc1NS(C)(=O)=O [Example 4] |
| < 100 nM | – | – | Cc1cc([C@@H](C)NC(=O)[C@H]2COc3ccc(C(F)(F)F)cc3O2)c(F)cc1NS(C)(=O)=O [Example 17, (R)—N—((R)-1-(2-fluoro-5-methyl-4-(methylsulfonamido)phenyl)ethyl)-7-(trifluoromethyl)-2,3-dihydrobenzo[b][1,4]dioxine-2-carboxamide] |
| < 100 nM | < 100 nM | – | Cc1cc([C@@H](C)NC(=O)C2COc3ccc(Cl)cc3C2)c(F)cc1NS(C)(=O)=O (some centres unmarked) [Example 6] |
| < 100 nM | – | – | Cc1cc([C@@H](C)NC(=O)C2CCc3nc(C(C)(C)C(F)(F)F)ccc3C2)c(F)cc1NS(C)(=O)=O (stereo partly drawn) [Example 8, N—((R)-1-(2-Fluoro-5-methyl-4-(methylsulfonamido)phenyl)ethyl)-2-(1,1,1-trifluoro-2-methylpropan-2-yl)-5,6,7,8-tetrahydroquinoline-6-carboxamide] |
| < 100 nM | 101 to 500 nM | – | Cc1cc([C@@H](C)NC(=O)C2CCc3ccccc3C2)c(F)cc1NS(C)(=O)=O (some centres unmarked) [Example 3, 1,2,3,4-Tetrahydronaphthalene-2-carboxylic acid f(r)-1-(2-fluoro-4-methanesulfonylamino-5-methylphenyl)ethylamide] |
| < 100 nM | – | – | C[C@@H](NC(=O)[C@H]1COc2cc(C(F)(F)F)ccc2O1)c1ccc(NS(C)(=O)=O)c(F)c1 [Example 22, (R)-6-Trifluoromethyl-2,3-dihydrobenzo[1,4]dioxine-2-carboxylic acid [(R)-1-(3-fluoro-4-methanesulfonylaminophenyl)ethyl]amide] |
| < 100 nM | – | – | C[C@@H](NC(=O)[C@H]1COc2cc(C(F)(F)F)ccc2O1)c1ccc(NS(C)(=O)=O)c(Cl)c1 [Example 23] |
| < 100 nM | 101 to 500 nM | – | Cc1cc([C@@H](C)NC(=O)C2=Cc3ccccc3OC2)c(F)cc1NS(C)(=O)=O [Example 1, (R)—N-(1-(2-Fluoro-5-methyl-4-(methylsulfonamido)phenyl)ethyl)-2h-chromene-3-carboxamide] |
| < 100 nM | – | – | Cc1cc([C@@H](C)NC(=O)C2CCc3nc(C(F)(F)F)ccc3C2)c(F)cc1NS(C)(=O)=O (stereo partly drawn) [Example 12, N—((R)-1-(2-Fluoro-5-methyl-4-(methylsulfonamido)phenyl)ethyl)-2-(trifluoromethyl)-5,6,7,8-tetrahydroquinoline-6-carboxamide] |
